Assay results taken from patent US20210017607A1, “Methods of Predicting Responsiveness to Cancer Therapies” (The University of Chicago, priority 2019, published 2021).
Values after ≈ are worked out from the molar mass of the structure shown. Read-outs that look alike come from different tables or passages of the source.

What was measured:
[1] = tested on: single cell suspensions derived from Myc-CAP (STING^lo) tumors; assay: Ex vivo reconstitution assay, IFNβ ELISA; assay type: cell-based, mouse; conditions: for IFNβ production within supernatants: ex vivo drug treatment, 36 hours
Procedure: FIGS. 15A-15E. Differential STING pathway activation within B6-Myc (STING^hi) cell lines and BMDMs relative to Myc-CAP (STING^lo) cells. (15A, 15B) The indicated cancer cell lines and BMDMs were treated with DMXAA (mouse STING agonist) for 1 and 24 hours, respectively, and protein extracts were interrogated for cGAS/STING pathway activation with the indicated antibodies by Western blotting. Supernatants were collected from for IFNβ1 ELISA following 36 hours of treatment with DMXAA (15C, 15D). (15E) Syngeneic Myc-CAP (STING^lo) tumors were processed into single cell suspensions and used for phycoerythrin-based sorting of CD45+ cellular fractions. Equal numbers of cells from these fractions were stimulated with DMXAA. Supernatants were collected at 36 hrs for detection of IFNB1 by ELISA; n=3 independent experiments; Significance/p-values were calculated by one-way Anova (for 15C & 15E) or paired t-test (for 15D); TAM=tumor associated macrophage; s.e.=short exposure; l.e.=long exposure.
FIGS. 29A-29M. PARPi alone induces DNA DSBs, but not apoptosis even in combination with PI3Ki in Myc-CAP (STING^lo) cancer cells; PARPi/PI3Ki combination induces intracellular DNA DSBs and proportionate release of MV surface-associated DNA DSBs from B6-Myc (STINGhi) cancer cells without affecting cellular viability; PARPi/PI3K treatment activates tumor-cell extrinsic cGAS/STING pathway within TAMs in vivo via MV surface-associated DNA DSBs released from tumor cells. Myc-CAP cancer cells were treated with the indicated drugs singly or in combination for 36 hours. (29A) Cells were stained with anti-mouse specific p-γH2AX antibody and a fluorescently labeled secondary antibody for determination of DNA DSBs, which were quantified by confocal microscopy. (29B) Protein extracts from cells in 29A were analyzed for the indicated pharmacodynamic biomarkers by western blotting; (29C) Annexin V-PI staining was done to assess frequency of live cells (Annexin V^− PI^−) following drug treatment. (29D) Ultracentrifugation was utilized to purify microvesicles (MVs) from supernatants in treatment groups in (29A) and associated DNA DSBs was quantified by Nanodrop®. Independent experiments n=2. (29E) Ultracentrifugation was utilized to purify MVs from supernatants in indicated treatment groups in FIG. 17A, and associated DNA DSBs were quantified by Nanodrop®; n=2 independent experiments. (29F) Syngeneic mice were engrafted with Myc-CAP (STING^lo) cells, and tumors were harvested when the tumor volume reached 400 mm^3. Single cell suspensions of the tumors were treated with the indicated drug(s), in the presence or absence of GW4869 (MV biogenesis inhibitor). (29G) Bone marrow derived macrophage (BMDMs) were co-cultured for 30 hours with supernatants (−/+ exogenous 50 units of DNase I pre-treatment for 30 minutes) from Myc-CAP cells that were treated with the indicated drug(s) for 36 hours. (29H) cGAMP (10 μg/mL) was pre-incubated with 10 units of DNAse I or mock control for 30 minutes and then added to BMDMs for 30 hours. (29I-29L) STING^+/+/STING^−/− BMDMs were co-cultured for 36 hours with supernatants from Myc-CAP and B6-Myc cancer cells that were treated with the indicated drug(s) for 36 hours. Supernatants were collected from 29F-29L at the end of treatment and analyzed for IFNβ1 by ELISA. […] Tumor volume was recorded daily for duration of experiment. […] Significance/p-values were calculated by one-way ANOVA. […]

[2] = IC90 concentrations stated for in vitro/ex vivo drug treatments; conditions: for IC90: read-out: IC90 concentration
[3] = FIG. 38, Myc-CAP-PTEN+/+ and PTEN−/− tumor suspensions
[4] = FIG. 50, Myc-CAP-PTEN^−/− tumor suspensions
[5] = FIG. 58, ID8 ovarian cancer cells

Structure (SMILES) | IFNβ production within supernatants [1] | IC90 [2, 3] [nM] | IC90 [2, 5] [nM] | also measured
Cc1ccc2c(=O)c3cccc(CC(=O)O)c3oc2c1C [DMXAA, 5,6-Dimethylxanthenone-4-acetic Acid] | – | – | – | IFN-β response within the CD45-negative tumor cell fraction ([1]; ex vivo DMXAA treatment): lack of response; fold increase in IFN-β levels within the TME ([1]; ex vivo DMXAA treatment): 11.4 fold; IC90 concentration [2, 3]: 50 µg/mL (≈ 177 µM); IC90 concentration [2, 4]: 50 µg/mL (≈ 177 µM)
Nc1cc(C(F)(F)F)c(-c2cc(N3CCOCC3)nc(N3CCOCC3)n2)cn1 [buparlisib] | not observed | 1000 | 1000 | –
COc1c(OCCCN2CCOCC2)ccc2c1N=C(NC(=O)c1cnc(N)nc1)N1CCN=C21 [copanlisib] | – | – | 100 | IC90 [2, 4]: 500 nM; IC90 ([2]; Myc-CAP-PTEN^−/− cells in vitro (FIG. 35)): 100 nM
CNCc1ccc(-c2[nH]c3cc(F)cc4c3c2CCNC4=O)cc1 [rucaparib] | not observed | 500 | – | –
